{"source": "patent US10532995B2", "about": "“Substituted pyrazole compounds as serine protease inhibitors” (VERSEON CORPORATION, priority 2015, dated 2020)", "note": "Where a name gives a salt, the structure may show the parent alone."}
{"molecular_target": "T1, Human thrombin (Homo sapiens, UniProt P00734)", "T1 construct": "purchased Haematologic Technologies Inc", "test": "Thrombin protease activity inhibition, chromogenic substrate S-2238", "assay_type": "biochemical", "conditions": "3 nM thrombin, 125 μM S-2238, 10 min pre-incubation, RT", "outline": "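Ten-point, three-fold serial dilutions of compound tested against 3 nM enzyme at RT in Tris buffer (0.05 M, pH 7.4) with 0.015 M NaCl and 0.01% PEG-8000.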", "units": {"IC50": "nM"}}
{"compound": "Clc1ccc(CNc2cc(C3CCCN3)n[nH]2)s1", "note": "(stereo not drawn) [Entry 189, N-[(5-chlorothiophen-2-yl)methyl]-3-(pyrrolidin-2-yl)-1H-pyrazol-5-amine]", "IC50": "> 100000"}
{"compound": "CC(C)(C)OC(=O)N1CCCC(C)(c2cc(NCc3ccc(Cl)s3)n(C(=O)C(C)(C)CO)n2)C1", "note": "(stereo not drawn) [Entry 282, tert-butyl 3-(5-[(5-chlorothiophen-2-yl)methyl]amino-1-(3-hydroxy-2,2-dimethylpropanoyl)-1H-pyrazol-3-yl)-3-methylpiperidine-1-carboxylate]", "IC50": "< 100"}
{"compound": "CC(C)(C)OC(=O)N1CCCC(c2cc(NCc3ccc(Cl)s3)n(C(=O)C(C)(C)C)n2)C1", "note": "(stereo not drawn) [Entry 279, tert-butyl 3-(5-[(5-chlorothiophen-2-yl)methyl]amino-1-(2,2-dimethylpropanoyl)-1H-pyrazol-3-yl)piperidine-1-carboxylate]", "IC50": "< 100"}
{"compound": "COc1ccccc1C(=O)n1nc(C2CCCNC2)cc1NCc1ccc(Cl)s1", "note": "(stereo not drawn) [Entry 157, N-[(5-chlorothiophen-2-yl)methyl]-1-(2-methoxybenzoyl)-3-(piperidin-3-yl)-1H-pyrazol-5-amine]", "IC50": "100 to 1000"}
{"compound": "C=CCOC(=O)N1CCC(c2nn(C(=O)C(C)(C)C)c(NCc3ccc(Cl)s3)c2C#N)CC1", "note": "[Entry 267, prop-2-en-1-yl 4-(5-[(5-chlorothiophen-2-yl)methyl]amino-4-cyano-1-(2,2-dimethylpropanoyl)-1H-pyrazol-3-yl)piperidine-1-carboxylate]", "IC50": "< 100"}
{"compound": "CC1CCCC(C)C1C(=O)n1nc(C2CCNCC2)cc1NCc1ccc(Cl)s1", "note": "(stereo not drawn) [Entry 151, N-[(5-chlorothiophen-2-yl)methyl]-1-(2,6-dimethylcyclohexanecarbonyl)-3-(piperidin-4-yl)-1H-pyrazol-5-amine hydrochloride]", "IC50": "1000 to 10000"}
{"compound": "CN(C)C(=O)N1CCC(c2cc(NCc3ccc(Cl)s3)n(C(=O)C(C)(C)CO)n2)CC1", "note": "[Entry 134, 4-(5-[(5-chlorothiophen-2-yl)methyl]amino-1-(3-hydroxy-2,2-dimethylpropanoyl)-1H-pyrazol-3-yl)-N,N-dimethylpiperidine-1-carboxamide]", "IC50": "< 100"}
{"compound": "COc1ccccc1C(=O)n1nc(C2CCCN2C(=O)C(C)C)cc1NCc1ccc(Cl)s1", "note": "(stereo not drawn) [Entry 91, 1-[2-(5-[(5-chlorothiophen-2-yl)methyl]amino-1-(2-methoxybenzoyl)-1H-pyrazol-3-yl)pyrrolidin-1-yl]-2-methylpropan-1-one]", "IC50": "100 to 1000"}
{"compound": "C=CCOC(=O)N1CCN(S(C)(=O)=O)CC1c1cc(NCc2ccc(Cl)s2)[nH]n1", "note": "(stereo not drawn) [Entry 252, prop-2-en-1-yl 2-(5-[(5-chlorothiophen-2-yl)methyl]amino-1H-pyrazol-3-yl)-4-methanesulfonylpiperazine-1-carboxylate]", "IC50": "> 100000"}
{"compound": "CC(C)(C)C(=O)n1nc(C2CCN(CC(=O)O)CC2)cc1NCc1ccc(Cl)s1", "note": "[Entry 109, 2-[4-(5-[(5-chlorothiophen-2-yl)methyl]amino-1-(2,2-dimethylpropanoyl)-1H-pyrazol-3-yl)piperidin-1-yl]acetic acid]", "IC50": "100 to 1000"}
{"compound": "C=CCOC(=O)N1CCCC1c1cc(NCc2ccc(Cl)s2)n(C(=O)C(C)(C)C)n1", "note": "(stereo not drawn) [Entry 247, prop-2-en-1-yl 2-(5-[(5-chlorothiophen-2-yl)methyl]amino-1-(2,2-dimethylpropanoyl)-1H-pyrazol-3-yl)pyrrolidine-1-carboxylate]", "IC50": "< 100"}
{"compound": "C=CCOC(=O)N1CCCC1c1cc(NCc2ccc(Cl)s2)[nH]n1", "note": "(stereo not drawn) [Entry 253, prop-2-en-1-yl 2-(5-[(5-chlorothiophen-2-yl)methyl]amino-1H-pyrazol-3-yl)pyrrolidine-1-carboxylate]", "IC50": "> 100000"}
{"compound": "C=CCOC(=O)N1CCN(C(=O)N2CCOCC2)CC1c1cc(NCc2ccc(Cl)s2)n(C(=O)c2cscn2)n1", "note": "(stereo not drawn) [Entry 240, prop-2-en-1-yl 2-(5-[(5-chlorothiophen-2-yl)methyl]amino-1-(1,3-thiazole-4-carbonyl)-1H-pyrazol-3-yl)-4-(morpholine-4-carbonyl)piperazine-1-carboxylate]", "IC50": "100 to 1000"}
{"compound": "FC(F)(CN1CCC(c2cc(NCc3ccc(Cl)s3)[nH]n2)CC1)c1ccccn1", "note": "[Entry 222, N-[(5-chlorothiophen-2-yl)methyl]-3-1-[2,2-difluoro-2-(pyridin-2-yl)ethyl]piperidin-4-yl-1H-pyrazol-5-amine]", "IC50": "> 100000"}
{"compound": "O=C(CN1CCOCC1)N1CCC(c2cc(NCc3ccc(Cl)s3)[nH]n2)CC1", "note": "[Entry 103, 1-[4-(5-[(5-chlorothiophen-2-yl)methyl]amino-1H-pyrazol-3-yl)piperidin-1-yl]-2-(morpholin-4-yl)ethan-1-one]", "IC50": "> 100000"}
{"compound": "C=CCOC(=O)N1CCN(C(=O)CN2CCOCC2)CC1c1cc(NCc2ccc(Cl)s2)n(C(=O)c2cscn2)n1", "note": "(stereo not drawn) [Entry 241, prop-2-en-1-yl 2-(5-[(5-chlorothiophen-2-yl)methyl]amino-1-(1,3-thiazole-4-carbonyl)-1H-pyrazol-3-yl)-4-[2-(morpholin-4-yl)acetyl]piperazine-1-carboxylate]", "IC50": "100 to 1000"}
{"compound": "CC(C)(C)OC(=O)N1CCCC1(C)c1cc(NCc2ccc(Cl)s2)n(C(=O)C2(C)CCOCC2)n1", "note": "(stereo not drawn) [Entry 275, tert-butyl 2-(5-[(5-chlorothiophen-2-yl)methyl]amino-1-(4-methyloxane-4-carbonyl)-1H-pyrazol-3-yl)-2-methylpyrrolidine-1-carboxylate]", "IC50": "1000 to 10000"}
{"compound": "Clc1ccc(CNc2cc(C3CCN(Cc4ncco4)CC3)n[nH]2)s1", "note": "[Entry 193, N-[(5-chlorothiophen-2-yl)methyl]-3-[1-(1,3-oxazol-2-ylmethyl)piperidin-4-yl]-1H-pyrazol-5-amine]", "IC50": "> 100000"}
{"compound": "CS(=O)(=O)N1CCNC(c2cc(NCc3ccc(Cl)s3)[nH]n2)C1", "note": "(stereo not drawn) [Entry 179, N-[(5-chlorothiophen-2-yl)methyl]-3-(4-methanesulfonylpiperazin-2-yl)-1H-pyrazol-5-amine]", "IC50": "> 100000"}
{"compound": "CC1(C(=O)n2nc(C3CCN(C(=O)N4CCOCC4)CC3)cc2NCc2ccc(Cl)s2)CCC(O)CC1", "note": "(stereo not drawn) [Entry 139, 4-(5-[(5-chlorothiophen-2-yl)methyl]amino-3-[1-(morpholine-4-carbonyl)piperidin-4-yl]-1H-pyrazole-1-carbonyl)-4-methylcyclohexan-1-ol]", "IC50": "< 100"}
{"compound": "O=C(c1ccoc1)n1nc(C2CCN(Cc3ccccc3)C2)cc1NCc1ccc(Cl)s1", "note": "(stereo not drawn) [Entry 114, 3-(1-benzylpyrrolidin-3-yl)-N-[(5-chlorothiophen-2-yl)methyl]-1-(furan-3-carbonyl)-1H-pyrazol-5-amine]", "IC50": "1000 to 10000"}
{"compound": "CC1(c2cc(NCc3ccc(Cl)s3)n(C(=O)c3ccsc3)n2)CCCNC1=O", "note": "(stereo not drawn) [Entry 123, 3-(5-[(5-chlorothiophen-2-yl)methyl]amino-1-(thiophene-3-carbonyl)-1H-pyrazol-3-yl)-3-methylpiperidin-2-one]", "IC50": "100 to 1000"}
{"compound": "Cc1cccc(CN2CCC(c3cc(NCc4ccc(Cl)s4)[nH]n3)CC2)n1", "note": "[Entry 220, N-[(5-chlorothiophen-2-yl)methyl]-3-1-[(6-methylpyridin-2-yl)methyl]piperidin-4-yl-1H-pyrazol-5-amine]", "IC50": "> 100000"}
{"compound": "CC1(C(=O)n2nc(C3CCOCC3)c(F)c2NCc2ccc(Cl)s2)CCOCC1", "note": "[Entry 229, N-[(5-chlorothiophen-2-yl)methyl]-4-fluoro-1-(4-methyloxane-4-carbonyl)-3-(oxan-4-yl)-1H-pyrazol-5-amine]", "IC50": "< 100"}
